Measured values: ChEMBL document CHEMBL1146812 (Bioorg Med Chem Lett, 2004)

Assays:
[1] = target: T1, Melatonin receptor (Homo sapiens, UniProt P48039+P49286); test: Agonist activity for its ability to inhibit forskolin-stimulated cAMP accumulation against MT1 receptor; type: functional
[2] = target: T2, Melatonin receptor type 1B (Homo sapiens, UniProt P49286); test: Binding affinity against human Melatonin receptor type 1B by using 2-[125I]iodomelatonin as radioligand
T2 sequence (P49286 whole entry): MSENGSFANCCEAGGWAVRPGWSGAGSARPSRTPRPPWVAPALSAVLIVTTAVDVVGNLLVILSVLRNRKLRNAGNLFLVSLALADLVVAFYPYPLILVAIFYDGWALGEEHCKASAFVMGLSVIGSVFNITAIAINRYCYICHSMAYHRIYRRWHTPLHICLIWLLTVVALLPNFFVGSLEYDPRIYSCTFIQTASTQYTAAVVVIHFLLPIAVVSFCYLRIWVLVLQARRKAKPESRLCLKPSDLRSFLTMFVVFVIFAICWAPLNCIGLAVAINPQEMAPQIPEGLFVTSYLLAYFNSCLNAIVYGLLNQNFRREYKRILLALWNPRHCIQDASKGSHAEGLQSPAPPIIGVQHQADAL

[3] = target: Melatonin receptor type 1A (Homo sapiens, UniProt P48039); test: Binding affinity against human Melatonin receptor type 1A by using 2-[125I]iodomelatonin as radioligand
Chain of Melatonin receptor type 1A (P48039 whole entry): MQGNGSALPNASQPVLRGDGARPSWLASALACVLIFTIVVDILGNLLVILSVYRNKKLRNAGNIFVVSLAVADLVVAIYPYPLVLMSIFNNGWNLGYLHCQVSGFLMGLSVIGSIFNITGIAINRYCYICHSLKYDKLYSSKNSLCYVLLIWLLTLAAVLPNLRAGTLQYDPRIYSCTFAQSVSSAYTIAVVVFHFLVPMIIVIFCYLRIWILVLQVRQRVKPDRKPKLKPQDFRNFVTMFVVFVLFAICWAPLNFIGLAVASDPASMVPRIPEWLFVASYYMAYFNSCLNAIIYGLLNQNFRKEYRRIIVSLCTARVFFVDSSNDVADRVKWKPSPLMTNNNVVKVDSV

[4] = target: T1, Melatonin receptor; test: Intrinsic activity against human melatonin receptor (MT); type: protein assay
[5] = target: Melatonin receptor type 1B (Homo sapiens) (UniProt P49286); test: Agonist activity for its ability to inhibit forskolin-stimulated cAMP accumulation against MT2 receptor
[6] = target: Melatonin receptor type 1B (Homo sapiens) (UniProt P49286); test: Intrinsic activity against human melatonin receptor (MT)

T1 sequence (P48039 whole entry, looked up, one chain of several): as the sequence (P48039 whole entry) above

SMILES	EC50 [1] [nM]	Ki [2] [nM]	Ki [3] [nM]	Activity [4]	EC50 [5] [nM]	Activity [6]
CC(=O)NCCCc1cccc2nc(CCCCc3ccccc3)oc12	–	16	1.3	–	–	–
Cc1nc2cccc(CCCNC(=O)C3CC3)c2o1	–	2.7	0.7	–	0.74	0.96
CCCc1nc2cccc(CCCNC(=O)CC)c2o1	–	27	51	–	–	–
CCCC(=O)NCCCc1cccc2nc(C(C)C)oc12	–	16	119	–	–	–
CC(=O)NCCCc1cccc2nc(C(C)C)oc12	–	35	116	–	–	–
CCNC(=O)NCCCc1cccc2nc(CC)oc12	–	12	75	–	–	–
CCCC(=O)NCCCc1cccc2nc(CCCCc3ccccc3)oc12	–	29	3.3	–	–	–
O=C(NCCCc1cccc2nc(-c3ccccc3)oc12)C1CC1	–	38	23	–	–	–
CC(=O)NCCCc1cccc2nc(C)oc12	–	5.3	24	–	–	–
CC(C)C(=O)NCCCc1cccc2nc(C(C)C)oc12	–	88	40	–	–	–
CC(C)c1nc2cccc(CCCNC(=O)C3CC3)c2o1	–	114	34	–	–	–
CCC(=O)NCCCc1cccc2nc(C(C)C)oc12	–	15	142	–	–	–
CCNC(=O)NCCCc1cccc2nc(C)oc12	–	26	50	–	–	–
CC(C)C(=O)NCCCc1cccc2nc(CCCCc3ccccc3)oc12	–	18	1.3	–	–	–
CC(=O)NCCCc1cccc2ncoc12	–	4.3	30	–	–	–
CCCC(=O)NCCCc1cccc2nc(C)oc12	–	2.2	2.3	–	–	–
CCCC(=O)NCCCc1cccc2ncoc12	–	3.7	9.9	–	–	–
CCCc1nc2cccc(CCCNC(=O)NCC)c2o1	–	36	492	–	–	–
CCc1nc2cccc(CCCNC(=O)C3CC3)c2o1	–	4.7	4.5	–	–	–
CCCc1nc2cccc(CCCNC(=O)C3CC3)c2o1	–	7.6	44	–	–	–
CCCc1nc2cccc(CCCNC(C)=O)c2o1	–	35	183	–	–	–
CCNC(=O)NCCCc1cccc2nc(-c3ccccc3)oc12	–	61	340	–	–	–
Cc1nc2cccc(CCCNC(=O)C(C)C)c2o1	–	2.3	3	–	–	–

More lines, in order of falling Ki [2], values ahead:

EC50 [1] [nM]	Ki [2] [nM]	Ki [3] [nM]	Activity [4]	EC50 [5] [nM]	Activity [6]	SMILES
–	89	40	–	–	–	CC(=O)NCCCc1cccc2nc(-c3ccccc3)oc12
–	57	87	–	–	–	CC(C)C(=O)NCCCc1cccc2nc(-c3ccccc3)oc12
–	52	194	–	–	–	CCNC(=O)NCCCc1cccc2nc(C(C)C)oc12
–	29	60	–	–	–	CCCc1nc2cccc(CCCNC(=O)C(C)C)c2o1
–	22	166	–	–	–	CCCC(=O)NCCCc1cccc2nc(CCC)oc12
–	22	0.63	–	–	–	O=C(NCCCc1cccc2nc(CCCCc3ccccc3)oc12)C1CC1
–	17	60	–	–	–	CCCC(=O)NCCCc1cccc2nc(-c3ccccc3)oc12
–	14	0.76	–	–	–	CCC(=O)NCCCc1cccc2nc(CCCCc3ccccc3)oc12
–	10	13.1	–	–	–	CCC(=O)NCCCc1cccc2nc(-c3ccccc3)oc12
–	4.5	13.2	–	–	–	CCc1nc2cccc(CCCNC(=O)C(C)C)c2o1
0.26	2.8	2.8	0.98	–	–	CCC(=O)NCCCc1cccc2nc(C)oc12
–	2.3	9	–	–	–	CCc1nc2cccc(CCCNC(C)=O)c2o1
–	1.8	6.6	–	–	–	CCC(=O)NCCCc1cccc2ncoc12
–	1	3.5	–	–	–	CCC(=O)NCCCc1cccc2nc(CC)oc12
–	1	8.1	–	–	–	CCCC(=O)NCCCc1cccc2nc(CC)oc12
